What was measured:
Type in all cases: biochemical
[1] = molecular target: T1, propionyl-CoA carboxylase from Methylobacterium extorquens (PCCMe) variant PCCMe_D407I_Y143H (pccA SEQ ID NO: 2; pccB_D407I_Y143H SEQ ID NO: 6) (Methylorubrum extorquens, UniProt C5AP75+C5AWU5, D407I/Y143H); assay: PCCMe_D407I_Y143H activity for conversion of glycolyl-CoA into tartronyl-CoA (reaction 3#), coupled ATP hydrolysis (PK/LDH) assay; conditions: 37° C., pH 7.7, ATP hydrolysis assay, 0.125-3 mM glycolyl-CoA; n=2
T1 sequence (C5AP75 1-510 Y143H/D407I): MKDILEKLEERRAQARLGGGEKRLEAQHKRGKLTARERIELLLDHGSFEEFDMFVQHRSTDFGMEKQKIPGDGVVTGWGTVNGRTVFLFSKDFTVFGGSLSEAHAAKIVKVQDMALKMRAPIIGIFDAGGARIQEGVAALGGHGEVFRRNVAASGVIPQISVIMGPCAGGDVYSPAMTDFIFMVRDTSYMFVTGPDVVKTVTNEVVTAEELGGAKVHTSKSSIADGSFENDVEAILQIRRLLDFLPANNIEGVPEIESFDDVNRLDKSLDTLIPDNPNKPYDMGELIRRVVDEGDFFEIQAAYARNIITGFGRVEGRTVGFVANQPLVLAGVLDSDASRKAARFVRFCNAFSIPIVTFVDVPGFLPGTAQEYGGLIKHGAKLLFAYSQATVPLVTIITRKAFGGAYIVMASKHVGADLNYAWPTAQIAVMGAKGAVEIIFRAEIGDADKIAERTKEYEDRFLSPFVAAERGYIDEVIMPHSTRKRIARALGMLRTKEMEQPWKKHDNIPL
T1 sequence (C5AWU5 1-667): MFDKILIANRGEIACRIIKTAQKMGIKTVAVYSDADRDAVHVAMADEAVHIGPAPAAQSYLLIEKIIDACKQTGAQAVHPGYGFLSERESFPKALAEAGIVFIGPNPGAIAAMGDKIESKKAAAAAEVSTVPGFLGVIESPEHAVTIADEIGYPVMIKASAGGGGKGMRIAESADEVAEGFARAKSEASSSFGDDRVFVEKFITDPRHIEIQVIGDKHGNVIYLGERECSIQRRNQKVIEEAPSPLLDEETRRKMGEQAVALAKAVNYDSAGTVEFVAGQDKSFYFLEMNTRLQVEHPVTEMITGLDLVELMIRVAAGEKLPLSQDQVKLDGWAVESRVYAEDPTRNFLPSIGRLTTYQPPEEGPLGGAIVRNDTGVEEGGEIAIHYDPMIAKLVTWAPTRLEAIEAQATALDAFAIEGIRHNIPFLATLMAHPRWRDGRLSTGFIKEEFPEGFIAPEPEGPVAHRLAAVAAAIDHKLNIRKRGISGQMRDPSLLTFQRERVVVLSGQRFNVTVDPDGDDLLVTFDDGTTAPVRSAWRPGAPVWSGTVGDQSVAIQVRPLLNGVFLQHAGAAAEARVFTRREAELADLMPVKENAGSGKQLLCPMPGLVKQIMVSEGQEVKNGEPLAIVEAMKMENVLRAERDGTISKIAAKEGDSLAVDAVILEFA

[2] = test system: malonyl-CoA reductase from Erythrobacter sp. NAP1 (MCRE), SEQ ID NO: 10; assay: MCRE activity for conversion of tartronyl-CoA into glycerate (reactions 4# and 5), NADPH oxidation; conditions: 37° C., assay as for MCRCa; n=2
[3] = molecular target: T2, malonyl-CoA reductase from Chloroflexus aurantiacus (MCRCa), SEQ ID NO: 8 (Chloroflexus aurantiacus, UniProt Q6QQP7); assay: MCRCa activity for conversion of tartronyl-CoA into glycerate (reactions 4# and 5), NADPH oxidation; conditions: FIG. 8D and Table 5; 37° C., pH 7.5, 0.4 mM NADPH; n=3
T2 sequence (Q6QQP7 1-1220): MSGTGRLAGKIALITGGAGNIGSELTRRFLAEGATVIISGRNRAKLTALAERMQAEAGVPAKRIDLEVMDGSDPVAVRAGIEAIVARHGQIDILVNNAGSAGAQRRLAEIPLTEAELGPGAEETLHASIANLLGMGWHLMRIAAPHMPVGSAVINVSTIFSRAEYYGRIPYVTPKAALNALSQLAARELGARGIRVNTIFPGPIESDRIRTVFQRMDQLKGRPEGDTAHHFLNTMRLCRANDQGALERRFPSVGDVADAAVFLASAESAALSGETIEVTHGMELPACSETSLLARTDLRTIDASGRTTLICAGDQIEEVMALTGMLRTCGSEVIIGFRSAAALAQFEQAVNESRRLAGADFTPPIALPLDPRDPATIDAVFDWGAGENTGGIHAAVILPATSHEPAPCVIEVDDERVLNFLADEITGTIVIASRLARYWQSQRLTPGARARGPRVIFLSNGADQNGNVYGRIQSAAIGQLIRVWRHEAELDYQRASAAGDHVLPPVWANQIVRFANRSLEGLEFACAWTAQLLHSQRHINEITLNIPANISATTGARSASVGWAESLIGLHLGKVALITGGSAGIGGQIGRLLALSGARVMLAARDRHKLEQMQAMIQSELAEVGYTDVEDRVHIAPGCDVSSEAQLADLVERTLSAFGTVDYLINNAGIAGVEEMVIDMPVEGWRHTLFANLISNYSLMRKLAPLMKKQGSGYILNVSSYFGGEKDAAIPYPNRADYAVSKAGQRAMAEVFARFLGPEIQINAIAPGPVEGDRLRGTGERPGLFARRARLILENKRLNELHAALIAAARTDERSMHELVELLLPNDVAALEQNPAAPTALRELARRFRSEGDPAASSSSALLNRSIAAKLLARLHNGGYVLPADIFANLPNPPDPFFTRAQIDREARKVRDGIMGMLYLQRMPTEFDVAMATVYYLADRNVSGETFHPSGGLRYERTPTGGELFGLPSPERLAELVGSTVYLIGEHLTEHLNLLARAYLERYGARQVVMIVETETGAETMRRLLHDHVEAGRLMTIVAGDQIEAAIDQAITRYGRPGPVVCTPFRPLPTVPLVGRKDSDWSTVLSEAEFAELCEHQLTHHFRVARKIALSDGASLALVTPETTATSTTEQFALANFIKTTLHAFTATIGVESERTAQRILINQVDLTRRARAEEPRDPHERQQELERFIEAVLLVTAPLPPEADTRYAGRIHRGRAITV
Description: For the heterologous expression of the MCRCa protein (amino acid sequence is shown in SEQ ID NO: 8; corresponding nucleic acid sequence encoding the protein is depicted in SEQ ID NO: 7) the previously described pTRC-MCRCa plasmid (Kröger et al., 2011, Analytical biochemistry, 411(1), 100-105) was employed.
Cells were harvested at 10 000×g for 10 min and cell pellets were stored at −80° C. until purification of enzymes. Cell pellets of MCRCa and MCRE overexpressing cells were resuspended in two-fold volume of buffer AStrep (50 mM Tris/HCl, 150 mM NaCl, pH 7.8) containing 0.1 mg mL^−1 DNAse I. The cell suspension was passed through a French pressure cell twice at a pressure of 137 MPa and centrifuged at 100 000×g and 4° C. for 1 h. The supernatant was filtered through a 0.45 μm syringe filter and loaded at a flow rate of 1 mL min^−1 onto a 1 mL StrepTrap™ HP column (GE healthcare) which had previously been equilibrated with 5 column volumes of buffer AStrep. The column was washed with 20 column volumes of buffer AStrep and the protein was eluted with buffer AStrep containing 3 mM desthiobiotin. […]
The kinetics of the MCRCa enzyme for enzymatically converting the substrate tartonyl-CoA into glycerate (via reactions 4# and 5 both catalyzed by MCRCa) were determined spectrophotometrically at 365 nm following the oxidation of NADPH. […]

**Q.** For CC(C)(COP(=O)(O)OP(=O)(O)OC[C@H]1O[C@@H](n2cnc3c(N)ncnc32)[C@H](O)[C@@H]1OP(=O)(O)O)[C@@H](O)C(=O)NCCC(=O)NCCSC(=O)CO [glycolyl-CoA], which vmax [1] is on record?
**A.** 1.5 ± 0.09 U mg^−1

**Q.** Which Km [2] does the source give for CC(C)(COP(=O)(O)OP(=O)(O)OC[C@H]1O[C@@H](n2cnc3c(N)ncnc32)[C@H](O)[C@@H]1OP(=O)(O)O)[C@@H](O)C(=O)NCCC(=O)NCCSC(=O)C(O)C(=O)O (stereo partly shown) [tartronyl-CoA] here?
**A.** 180 ± 40 µM

**Q.** What about the vmax [2] of the same compound?
**A.** 0.23±0.01 U mg^−1

**Q.** And the vmax [3]?
**A.** 0.6 ± 0.01 U mg^−1

Reference: US10781456B2, “Carbon-neutral and carbon-positive photorespiration bypass routes supporting higher photosynthetic rate and yield” (Max-Planck-Gesellschaft zur Förderung der Wissenschaften …, priority 2015, dated 2020)
